Measurements published in patent publication US4621081A, “Cephalosporin antibiotics” (Glaxo Group Limited, priority 1978, dated 1986).

What was measured:
[1] = Effect of increased inocula; type: cell-based
[2] = Bactericidal action relative to minimum inhibitory concentration; type: cell-based
gram-negative bacteria = assay: Experimental infections in mice with gram-negative bacteria; type: in vivo
[3] = General (broad spectrum) antibiotic activity; type: cell-based
[4] = Distribution in the bodies of small rodents after subcutaneous injection; type: in vivo
strains of Pseudomonas = assay: Activity against strains of Pseudomonas; type: cell-based
[5] = Effect of human serum on antibacterial properties; type: cell-based
[6] = Acute toxicity tests in mice; settings: mouse, in vivo
Nephrotoxicity in rats = type: in vivo; settings: dosages of 2.0 g/kg
[7] = tested on: strains of Staphylococcus aureas; assay: Activity against strains of Staphylococcus aureas; type: cell-based
[8] = Serum levels and serum half-life in primates after intramuscular injection; type: in vivo
[9] = tested on: strains of Pseudomonas aeruginosa; assay: Experimental infections in mice with strains of Pseudomonas aeruginosa; type: in vivo; settings: experimental infection

Compound	effect of increased inocula against the compound [1]	bactericidal at concentrations close to the minimum inhibitory concentration [2]	treatment of experimental infections in mice with gram-negative bacteria (gram-negative bacteria)	general antibiotic properties / antibiotic activity [3]	distribution in the bodies of small rodents [4]	therapeutic levels in small rodents [4]	activity against strains of Pseudomonas (strains of Pseudomonas)	antibacterial properties impaired by human serum [5]	LD50 [6] [mg/kg]	nephrotoxicity in rats (Nephrotoxicity in rats)	activity against strains of Staphylococcus aureas [7]	half-life in man (probability, from serum half-life in primates) ([8]; man, inferred from serum half-life in primates)	serum levels in primates ([8]; primates, intramuscular injection)	protection against strains of Pseudomonas aeruginosa [9]	protection compared with the treatment with an aminoglycoside such as amikacin ([9]; versus an aminoglycoside such as amikacin)
C[n+]1ccc(SCC2=C(C(=O)[O-])N3C(=O)[C@@H](NC(=O)/C(=N\OC4(C(=O)O)CCC4)c4csc(N)n4)[C@H]3SC2)cc1 [compound of formula (Ib), (6R,7R)-7-[(Z)-2-(2-aminothiazol-4-yl)-2-(1-carboxycyclobut-1-oxyimino)acetamido]-3-[(1-methylpyridinium-4-yl)-thiomethyl]ceph-3-em-4-carboxylate]	low	rapidly bactericidal	successfully treated	possesses to an outstanding extent the general antibiotic properties	well distributed	useful therapeutic levels	excellent activity	not impaired	> 1000	No nephrotoxicity was observed	useful activity	comparatively long half-life	high and long lasting serum levels	excellent protection	comparable
C[n+]1ccc(SCC2=C(C(=O)[O-])N3C(=O)[C@@H](NC(=O)/C(=N\OC(C)(C)C(=O)O)c4csc(N)n4)[C@H]3SC2)cc1 [(6R,7R)-7-[(Z)-2-(2-aminothiazol-4-yl)-2-(2-carboxyprop-2-oxyimino)acetamido]-3-[(1-methylpyridinium-4-yl)-thiomethyl]ceph-3-em-4-carboxylate]	–	–	–	not dissimilar properties to the compound of formula (Ib)	–	–	–	–	–	–	–	–	–	–	–
